Assay results taken from patent US11339165B2, “Pyrazolopyrimidines having activity against the respiratory syncytial virus (RSV)” (priority 2017, dated 2022).

How the values were obtained:
[1] = test system: rgRSV224 virus; test: Antiviral activity: rgRSV224 (GFP) replication in HeLa cells; format: cell-based, respiratory syncytial virus (RSV); details: human respiratory syncytial virus, HeLa, 72 h, read-out: RSV HELA EC50 (μM), rgRSV224 virus (MOI=1), HeLa cells, GFP expression three days post-virus exposure
[2] = in vitro; details: human, TOX HELA CC50 (μM)

Compound | EC50 [1] [µM] | CC50 at 3 days [2] [µM]
C[C@@H]1c2ccccc2CCN1C(=O)c1cc(C2CC2)n2nc(-c3ccc(N4CC[C@@](C)(CC(N)=O)C4)cc3F)cc2n1 (single isomer, unassigned) [Compound 24, 2-[(3*S)-1-(4-{7-Cyclopropyl-5-[(1R)-1-methyl-1,2,3,4-tetrahydroisoquinoline-2-carbonyl]pyrazolo[1,5-a]pyrimidin-2-yl}-3-fluorophenyl)-3-methylpyrrolidin-3-yl]acetamide] | 0.03 | 26.4
C[C@@H]1c2ccsc2CCN1C(=O)c1cc(C2CC2)n2nc(-c3ccc(N4CC[C@](C)(C(N)=O)C4)cc3F)cc2n1 (single isomer, unassigned) [Compound 45, (3*S)-1-(4-{7-Cyclopropyl-5-[(4*R)-4-methyl-4,5,6,7-tetrahydro-thieno[3,2-c]pyridine-5-carbonyl]pyrazolo[1,5-a]pyrimidin-2-yl}-3-fluorophenyl)-3-methylpyrrolidine-3-carboxamide] | 0.02 | 31.4
CNC(=O)[C@H]1CCN(c2ccc(-c3cc4nc(C(=O)N5CCc6ccccc6[C@H]5C)cc(C5CC5)n4n3)c(F)n2)C1 [Compound 50, (3S)-1-(5-{7-Cyclopropyl-5-[(1R)-1-methyl-1,2,3,4-tetrahydroisoquinoline-2-carbonyl]-pyrazolo[1,5-a]pyrimidin-2-yl}-6-fluoropyridin-2-yl)-N-methylpyrrolidine-3-carboxamide] | 0.031 | 35.1
C[C@@H]1c2ccccc2CCN1C(=O)c1cc(C2CC2)n2nc(-c3ccc(N4CC[C@H](C(=O)NS(C)(=O)=O)C4)cc3F)cc2n1 [Compound 40, (3S)-1-(4-{7-Cyclopropyl-5-[(1R)-1-methyl-1,2,3,4-tetrahydroisoquinoline-2-carbonyl]-pyrazolo[1,5-a]pyrimidin-2-yl}-3-fluorophenyl)-N-methanesulfonylpyrrolidine-3-carboxamide] | 0.061 | 52.3
C[C@@H]1c2ccccc2CCN1C(=O)c1cc(-c2ccc(F)cc2)n2nc(-c3ccc(N4CC[C@H](C(N)=O)C4)cc3F)cc2n1 [Compound 60, (3S)-1-{3-Fluoro-4-[7-(4-fluorophenyl)-5-[(1R)-1-methyl-1,2,3,4-tetrahydroisoquinoline-2-carbonyl]pyrazolo[1,5-a]pyrimidin-2-yl]phenyl}pyrrolidine-3-carboxamide] | 0.029 | 41.3
CO[C@H]1CN(c2ccc(-c3cc4nc(C(=O)N5CCc6ccccc6[C@H]5C)cc(C5CC5)n4n3)c(F)c2)C[C@@H]1O (stereo in doubt) [Compound 96, (7-cyclopropyl-2-(2-fluoro-4-((trans)-3-hydroxy-4-methoxypyrrolidin-1-yl)phenyl)pyrazolo[1,5-a]pyrimidin-5-yl)((R)-1-methyl-3,4-dihydroisoquinolin-2(1H)-yl)methanone] | 0.05 | 22.5
C[C@@H]1c2ccccc2CCN1C(=O)c1cc(C2CC2)n2nc(-c3ccc(N4CC[C@H](C(=O)N(C)C)C4)cc3F)cc2n1 [Compound 38, (3S)-1-(4-{7-Cyclopropyl-5-[(1R)-1-methyl-1,2,3,4-tetrahydroisoquinoline-2-carbonyl]-pyrazolo[1,5-a]pyrimidin-2-yl}-3-fluorophenyl)-N,N-dimethylpyrrolidine-3-carboxamide] | 0.043 | > 100
C[C@@H]1c2ccccc2CCN1C(=O)c1cc(C2CC2)n2nc(-c3c(F)cc(N4CC[C@H](C(N)=O)C4)cc3OCCO)cc2n1 [Compound 106, (S)-1-(4-(7-cyclopropyl-5-((R)-1-methyl-1,2,3,4-tetrahydroisoquinoline-2-carbonyl)pyrazolo[1,5-a]pyrimidin-2-yl)-3-fluoro-5-(2-hydroxyethoxy)phenyl)pyrrolidine-3-carboxamide] | 0.089 | 21
